Reference: article PMC10967572, “Induction of Oxidative Stress and Ferroptosis in Triple-Negative Breast Cancer Cells by Niclosamide via Blockade of the Function and Expression of SLC38A5 and SLC7A11” (Antioxidants, 2024)
Counter-ions that a name gives are not always drawn. Residues, ends and D or L forms follow the SMILES beside them. *: point of attachment. Cbz = O=C(OCc1ccccc1)*; CH2F = FC*

Columns and labels:
[1] = system: Nrf2; experiment: Nrf2 expression and subcellular localization (immunostaining, Western blot, qRT-PCR) in TNBC cells; type: cell-based, human; conditions: MB231 and TXBR100; 24 h; Se-Met 250 μM and 1 mM, monomethylfumarate 0.1 mM; immunostaining and Western blot
Procedure: (§1) Total RNA was extracted from cells using TRIzol Reagent (ThermoFisher Scientific, Waltham, MA, USA) and the RNA was reverse-transcribed using a high-capacity cDNA reverse transcription kit (ThermoFisher Scientific, Waltham, MA, USA) according to the manufacturer’s protocol. Quantitative RT-PCR was performed with Takara Taq Hot Start Version (TaKaRa Biotechnology, Shiga, Japan) or Power SYBR Green PCR master mix (Bio-Rad, Hercules, CA, USA). Primer sequences are shown in Supplemental Table S1. The relative mRNA expression was determined by the 2^−∆∆Ct method. Additionally, 18S was used as a housekeeping gene for normalization.
Cells and tumor tissues were lysed in Pierce™ RIPA buffer (ThermoFisher Scientific, Waltham, MA, USA) supplemented with Halt™ Protease and Phosphatase Inhibitor Cocktail (ThermoFisher Scientific, Waltham, MA, USA). Homogenates were centrifuged, and supernatants were used for protein measurement via Pierce™ BCA Protein Assay Kit (ThermoFisher Scientific, Waltham, MA, USA). […] Western blot samples were prepared in Laemmli sample buffer (Bio-Rad Laboratories, Hercules, CA, USA). They were loaded onto a SDS–PAGE gel and transferred onto a PVDF membrane (Bio-Rad Laboratories, Hercules, CA, USA). The membrane was blocked and antibodies diluted in 5% nonfat dry milk (Bio-Rad Laboratories, Hercules, CA, USA) or in 5% bovine serum albumin (Irvine Scientific, Santa Ana, CA, USA) were used. Protein bands were visualized using Pierce™ ECL Western Blotting Substrate (ThermoFisher Scientific, Waltham, MA, USA) and developed on the autoradiography film (Santa Cruz, Dallas, TX, USA). Primary antibodies were purchased either from Cell Signaling (Danvers, MA, USA) [anti-GPX4 (#52455), anti-FTH (#4393), anti-HSP60 (#12165), anti-phospho-p70S6K (#9205), anti-p70S6K (#2708)] or from Abcam (Waltham, MA, USA) [Nrf2 (#ab62352)]. Secondary antibody Horseradish peroxidase-conjugated goat anti-rabbit IgG (#1706515) was purchased from Bio-Rad Laboratories (Hercules, CA, USA). For quantification of protein levels by the densitometric analysis, the experiment was carried out in triplicate and the data were collected from the resultant three Western blots.

[2] = system: SLC7A11; experiment: SLC7A11 transport activity (glutamate uptake) after treatment of cells; type: cell-based, human; conditions: MB231, TXBR100 and MB453 cells treated before uptake
Procedure: The transport activity of SLC7A11 was calculated by subtracting the diffusional component from total uptake. […] Confluent cultures were used for uptake measurements.

[3] = molecular target: SLC38A5 (Homo sapiens, UniProt Q8WUX1); experiment: Inhibition of SLC38A5-mediated [3H]-serine uptake in TNBC cells; conditions: IC50 for the inhibition of SLC38A5-mediated serine uptake, serine 5 μM, LiCl buffer pH 8.5 with 5 mM tryptophan
[4] = system: TNBC cells (MB231 and TXBR100); experiment: MTT cell proliferation / viability assay; type: cell-based, human; conditions: niclosamide 1 μM with inhibitor 10 μM (hydroxychloroquine 25 μM), 48 h
Procedure: Cells were seeded in 96-well plates; after 24 h, niclosamide treatment was initiated. Cells were then cultured for 72 h with fresh medium containing freshly prepared niclosamide supplied every 24 h. Cells were washed with phosphate-buffered saline twice followed by MTT reagent (ATCC). Treatment and lysis of the cells were done as per the manufacturer’s instructions. Absorbance of the lysate was measured at 550 nm. Cell viability assay with various cell-death inhibitors was also performed as described above. Cells were treated with niclosamide (1 µM) along with cell death inhibitors (10 µM), except hydroxychloroquine (25 µM) for 48 h.

[5] = system: Nrf2 target genes (SLC7A11, HO-1, GCLC, GCLM); experiment: qRT-PCR of Nrf2 target genes in TNBC cells; type: cell-based, human; conditions: MB231, TXBR100 and MB453, Se-Met 1 mM, 16 h
Procedure: as §1

[6] = system: SLC38A5; set-up: method as in PMID 11243884, PMID 37812701; conditions: cited from earlier work
[7] = system: MB231 cells and TXBR100 cells; experiment: Lipid radical (ferroptosis) assay with LipiRadical Green; type: cell-based, human; conditions: inhibitor 10 μM with niclosamide 5 μM; MB231 and TXBR100
Procedure: Lipid radical (ferroptosis) assay and iron assay were performed as follows. Cells were cultured on a 25 mm glass coverslip until they reached 60–70% confluency (~48 h). At the time of the experiment, cells were washed with NaCl buffer, pH 7.5 and then incubated with 1 µM of LipiRadical Green (a lipid radical detection reagent, FDV-0042, Funakoshi, Tokyo, Japan) or Ferro-orange (an iron detection probe, F374, Dojindo, Rockville, MD, USA) in NaCl buffer, pH 7.5 for 20 min and then washed with NaCl buffer, pH 7.5. To analyze the effects of modifiers of iron levels and lipid peroxidation, the cells were co-treated with the modifiers and the respective fluorescent probe for 20 min and then washed. The glass coverslip containing the cells was then probed under an inverted microscope. The fluorescence imaging was captured using a Nikon T1-E microscope with A1 confocal super-resolution module (Nikon, Dallas, TX, USA), with a 60× objective, at 488 nm. The images represent a maximum projection intensity derived from a Z-stack. The fluorescence quantification was performed by measuring the corrected total cell fluorescence (CTCF) using Image J (version: 2.14.0/1.54f) and the following formula; CTCF = (integrated density) − (area of cell of interest) × (mean fluorescence of background).

[8] = system: MB231 cells and TXBR100 cells; experiment: Cellular glutathione levels (GSH-Glo assay); type: cell-based, human; conditions: Homo sapiens; buthionine sulfoximine 100 μM; both cell lines (MB231, TXBR100)
Procedure: Control and niclosamide-treated cells were used for measurement of cellular glutathione levels as instructed in the manufacturer’s protocol (GSH-Glo assay, Promega, Madison, WI, USA). The levels of malondialdehyde were measured using lipid peroxidation kit [Lipid Peroxidation (MDA) Assay Kit (MAK085), Millipore-sigma, St. Louis, MO, USA].

SLC38A5 (Homo sapiens, UniProt Q8WUX1), sequence (Q8WUX1 whole entry): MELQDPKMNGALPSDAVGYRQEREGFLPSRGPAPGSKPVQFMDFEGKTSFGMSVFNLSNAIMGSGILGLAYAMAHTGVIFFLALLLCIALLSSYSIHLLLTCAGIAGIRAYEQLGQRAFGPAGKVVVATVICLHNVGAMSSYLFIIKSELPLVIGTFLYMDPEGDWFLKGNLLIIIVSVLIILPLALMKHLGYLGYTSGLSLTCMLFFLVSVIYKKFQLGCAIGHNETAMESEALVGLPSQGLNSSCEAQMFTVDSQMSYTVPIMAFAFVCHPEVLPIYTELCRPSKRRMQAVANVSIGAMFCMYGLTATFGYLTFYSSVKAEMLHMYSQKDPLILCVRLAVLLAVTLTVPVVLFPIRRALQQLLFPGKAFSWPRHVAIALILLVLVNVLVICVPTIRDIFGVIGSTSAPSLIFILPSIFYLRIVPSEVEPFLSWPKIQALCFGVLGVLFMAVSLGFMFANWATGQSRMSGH

CSCC[C@H](N)C(=O)O [methionine]
cellular levels and nuclear localization of Nrf2 [1]: did not have any noticeable effect
transport activity of SLC7A11 (glutamate uptake) in treated cells [2]: did not have any effect
IC50 ([3]; MB231 cells): 518 µM
IC50 ([3]; TXBR100 cells): 316 µM

CCN(CCO)CCCC(C)Nc1ccnc2cc(Cl)ccc12 (centres unmarked) [hydroxychloroquine]
effect of cell death inhibitor on cell viability in the presence of niclosamide [4]: failed to promote cell viability

COC(=O)/C=C/C(=O)O [monomethylfumarate, monomethyl fumarate]
cellular levels and nuclear localization of Nrf2 [1]: increased
transport activity of SLC7A11 (glutamate uptake) in treated cells [2]: stimulatory effect

C[Se]CC[C@H](N)C(=O)O [Se-Met, seleno-methionine]
cellular levels and nuclear localization of Nrf2 [1]: increased
mRNA levels for Nrf2 targets SLC7A11, HO-1, GCLC and GCLM [5]: significant increase
transport activity of SLC7A11 (glutamate uptake) in treated cells [2]: increased substantially
IC50 ([3]; MB231 cells): 680 µM
IC50 ([3]; TXBR100 cells): 453 µM

N[C@@H](CO)C(=O)O [serine]
Kt value for SLC38A5-mediated transport [6]: 200 to 1300 µM

COC(=O)C[C@H](NC(=O)[C@H](C)NC(=O)[C@@H](NC(=O)OCc1ccccc1)C(C)C)C(=O)CF [ZVAD-fmk] (Cbz-Val-Ala-Asp(OMe)-CH2F)
effect of cell death inhibitor on niclosamide-induced increase in lipid radical fluorescence [7]: did not have any effect
effect of cell death inhibitor on cell viability in the presence of niclosamide [4]: failed to promote cell viability

CN1C(=O)C(Cc2c[nH]c3ccccc23)NC1=S (centres unmarked) [necrostatin, necrostatin-1]
effect of cell death inhibitor on niclosamide-induced increase in lipid radical fluorescence [7]: did not have any effect
effect of cell death inhibitor on cell viability in the presence of niclosamide [4]: failed to promote cell viability

CCCCS(=N)(=O)CCC(N)C(=O)O (centres unmarked) [buthionine sulfoximine]
inhibition at 100 µM [8]: ~90%

CCOC(=O)c1ccc(NC2CCCCC2)c(N)c1 [ferrostatin 1, ferrostatin-1]
effect of cell death inhibitor on niclosamide-induced increase in lipid radical fluorescence [7]: blocked this increase
effect of cell death inhibitor on cell viability in the presence of niclosamide [4]: improved cell viability
